Earlier results, collected in article PMC8198792, “Prediction of Anticancer Peptides with High Efficacy and Low Toxicity by Hybrid Model Based on 3D Structure of Peptides” (International Journal of Molecular Sciences, 2021).
Like-named read-outs stand apart in the source and are kept apart here.

Tested on: cancer cell lines
Set-up: method as in 6 sources, ref CancerPPD [45] and SATPdb ||| ref CancerPPD/SATPdb ||| ref CancerPPD, SATPdb, Swissprot (PDB) ||| ref CancerPPD/SATPdb/Swissprot(PDB) ||| ref CancerPPD / SATPdb ||| ...
Conditions: cited from earlier work
Description: Supplement ijms-22-05630-s001.zip/ACPs(seguence).xlsx, sheet "D1" | column: Activity || Supplement ijms-22-05630-s001.zip/ACPs(seguence).xlsx, sheet "D2" | column: Activity || Supplement ijms-22-05630-s001.zip/ACPs(seguence).xlsx, sheet "D3" | column: Activity || (+ 2 further places)

[1] = ACPs dataset D1, 1 = ACP (positive), 0 = non-ACP (negative), label taken from databases, ref CancerPPD [45] and SATPdb
[2] = ACPs dataset D4 (sheet "D4"), label 1 = ACP, experimentally validated ACPs, ref CancerPPD [45] and SATPdb
[3] = ACPs dataset D5 (sheet "D5"), label 1 = ACP (positive set), sequences with CancerPPD/SATPdb ID, ref CancerPPD, SATPdb
[4] = ACPs dataset sheet D2, 1 = ACP (CancerPPD/SATPdb ID), 0 = non-ACP (Swissprot/PDB ID), ref CancerPPD, SATPdb, Swissprot (PDB)
[5] = ACPs dataset D1, label 1 = ACP, 0 = non-ACP (non-anticancer AMPs from SATPdb), ref CancerPPD/SATPdb
[6] = ACPs dataset D4 (sheet "D4"), label 1 = ACP (CancerPPD ID), 0 = non-ACP (non-anticancer AMP, SATPdb ID), ref CancerPPD [45] and SATPdb
[7] = ACPs dataset D5 (sheet "D5"), label 1 = ACP (positive set), 0 = non-ACP (negative set), ref CancerPPD [45] and SATPdb
[8] = ACPs dataset D3 (supplement sheet "D3"), 1 = ACP, 0 = non-ACP, ref CancerPPD [45] and SATPdb
[9] = ACPs dataset D4 (sheet "D4"), label 1 = ACP, 0 = non-ACP, ref CancerPPD / SATPdb
[10] = ACPs dataset D3 (sheet "D3"), label 1 = ACP, 0 = non-ACP, ref CancerPPD/SATPdb
[11] = ACPs dataset D5, sheet "D5", label 1 = ACP, 0 = non-ACP, ref CancerPPD [45] and SATPdb
[12] = ACPs dataset D2 (supplement ACPs(seguence).xlsx, sheet D2), dataset label 1/0 (ACP / non-ACP), entries identified by Swissprot(PDB ID), ref CancerPPD/SATPdb/Swissprot(PDB)

SPWDIASVTAGGVQKRS [satpdb27667]
Activity [1]: 1 | Activity [2]: 1 | Activity [3]: 1 | Activity [4]: 1

MFSPILSLEIILALATLQSVFAQPVICTTVGSAAEGS [satpdb11835]
Activity [1]: 1 | Activity [2]: 1 | Activity [3]: 1 | Activity [4]: 1

ALLHHGLNCAKGVLA [satpdb12694]
Activity [5]: 0 | Activity [6]: 0

MERSTRELCLNFTVVLITVILIWLLVRSYQY [3W5A X-ray 3.01 C 1-31]
Activity [7]: 0 | Activity [4]: 0

GKWMSLLKHIWK [compound 3655]
Activity [8]: 1 | Activity [6]: 1 | Activity [7]: 1

SVLGTVKDLLIGAGKSAAQSVLTANSCKLSNSC [satpdb10581]
Activity [1]: 0 | Activity [6]: 0

LCYCRRRFCGCV [satpdb12860]
Activity [5]: 0 | Activity [9]: 0

KILRGVAKKILRTFLRRISKDILTGKK [compound 3329]
Activity [8]: 1 | Activity [6]: 1 | Activity [7]: 1

KWFKKIPKFLHLLKKF [compound 1120]
Activity [8]: 1 | Activity [6]: 1 | Activity [7]: 1

VKLLVyPLKVKLyP [satpdb13876]
Activity [10]: 0 | Activity [9]: 0 | Activity [11]: 0

GPSQPTYPGDDAPVEDLIRFYNDLQQYLNVVTRHRY [1PPT X-ray 1.37 A 1-36]
Activity [12]: 0 | Activity [7]: 0

FLPLIASVAANLAPKIICKITKTC [satpdb12152]
Activity [5]: 0 | Activity [6]: 0

GTWDDIGQGIGRVAYWVGKAMGNMSDVNQASRINRKKKH [2JPJ NMR - A 1-39]
Activity [12]: 0 | Activity [7]: 0

VIFEWTLLQVLSESDQDQSLEVFLT [satpdb18497]
Activity [1]: 1 | Activity [2]: 1 | Activity [3]: 1 | Activity [4]: 1

DDTPSSRCGSGGWGPCLPIVDLLCIVHVTVGCSGGFGCCRIG [2JR3 NMR - A 1-42]
Activity [12]: 0 | Activity [7]: 0

KWCFCVCYRGICYCRCRG [satpdb12871]
Activity [5]: 0 | Activity [9]: 0

SSSGWLCTLTIECGTIICACR [satpdb10412]
Activity [1]: 0 | Activity [6]: 0

GRLKRLRKKLKKLLKKLS [satpdb12346]
Activity [10]: 0 | Activity [9]: 0 | Activity [11]: 0

SVSNAATRVARTGRSRWRDVARNFMR [satpdb11117]
Activity [1]: 0 | Activity [6]: 0

TSPQREATCTSEVSGCPKIYNPVCGTDGITYSNECVLCSENKKRQTPVLIQKSGPC [1TGS X-ray 1.80,I,1-56]
Activity [12]: 0 | Activity [11]: 0

GKWSKILGHLIR [compound 3641]
Activity [8]: 1 | Activity [6]: 1 | Activity [7]: 1

GIFSLFKAGAKFFGKHLLKQAGKAGAEHLACKATNQC [satpdb10483]
Activity [1]: 0 | Activity [6]: 0

GGLKKLGKKLEGVGKRVFKASEKALPVLTGYKAIG [satpdb10158]
Activity [1]: 0 | Activity [6]: 0

GSIPACGESCFKGKCYTPGCSCSKYPLCAKN [2GJ0 NMR - A 1-31]
Activity [7]: 0 | Activity [4]: 0

GTPCGESCVYIPCFTAVVGCTCKDKVCYLN [satpdb10441]
Activity [5]: 0 | Activity [6]: 0

ENFAGGCATGYLRTADGRCKPTF [1HRL NMR - A 1-23]
Activity [7]: 0 | Activity [4]: 0

LSSTCILVLVKSTY [satpdb19063]
Activity [1]: 1 | Activity [2]: 1 | Activity [3]: 1 | Activity [4]: 1

GLFDIVKKVVGAIGSL [compound 4407]
Activity [1]: 1 | Activity [2]: 1 | Activity [3]: 1 | Activity [4]: 1

FLPIIASVAANVFSKIFCAISKKC [satpdb10458]
Activity [1]: 0 | Activity [6]: 0

ALWKTLLKKVLKA [satpdb11986]
Activity [10]: 0

GVVDILKGAAKDLAGHLATKVMNKL [satpdb14637]
Activity [10]: 0 | Activity [9]: 0 | Activity [11]: 0

KLCERSSGTWSGVCGNNNACKNQCINLEGARHGSCNYVFPYHRCICYFPC [satpdb11142]
Activity [1]: 0 | Activity [6]: 0

KWKLF [compound 1209]
Activity [8]: 1 | Activity [6]: 1 | Activity [7]: 1

GGLRSLGRKILRAWKKYGPIIVPIIRIG [compound 4394]
Activity [1]: 1 | Activity [2]: 1 | Activity [3]: 1 | Activity [4]: 1

IKLSPETKDNLKKVLKGAIKGAIAVAKMV [satpdb12617]
Activity [10]: 0 | Activity [9]: 0 | Activity [11]: 0

SWLSKTAKKLENSAKKRISEGIAIAIQGGPR [compound 1235]
Activity [1]: 1 | Activity [2]: 1 | Activity [3]: 1 | Activity [4]: 1

RGGRLTYTRpRFTVTVGR [satpdb14856]
Activity [10]: 0 | Activity [9]: 0 | Activity [11]: 0

GIGKFLHAAKKFAKAFVAEIMNS [compound 1354]
Activity [8]: 1 | Activity [6]: 1 | Activity [7]: 1

HRHQGPIFDTRPSPFNPNQPRPGPIY [satpdb10283]
Activity [1]: 0 | Activity [6]: 0

KWKEFLKEFKEAKKEVLHEALKAISE [satpdb14503]
Activity [10]: 0 | Activity [9]: 0 | Activity [11]: 0

ALWKTLLKKVLKA [satpdb12593]
Activity [9]: 0 | Activity [11]: 0

FLWWLFKWAWK [compound 1728]
Activity [1]: 1 | Activity [8]: 1 | Activity [2]: 1 | Activity [3]: 1 | Activity [4]: 1

MFFSSKKCKTVSKTFRGPCVRNA [satpdb11127]
Activity [1]: 0 | Activity [6]: 0

YNRLCIKPRDWIDECDSNEGGERAYFRNGKGGCDSFWICPEDHTGADYYSSYRDCFNACI [1D0D X-ray 1.62,A,1-60]
Activity [12]: 0 | Activity [11]: 0

ALSKALSKALSKALSKALSKALSK [compound 1357]
Activity [8]: 1 | Activity [2]: 1 | Activity [3]: 1

GWKKWFNRAKKVGKTVGGLAVDHYLG [satpdb11446]
Activity [5]: 0 | Activity [6]: 0

GLWSKIKEAAKAAGKAALNAVTGLVNQGDQPS [compound 4452]
Activity [1]: 1 | Activity [2]: 1 | Activity [3]: 1 | Activity [4]: 1

KWKSFIKKAKTSFLHSAKKF [satpdb14273]
Activity [10]: 0 | Activity [9]: 0 | Activity [11]: 0

CLRIGMRGRELMGGIGKTM [satpdb12393]
Activity [5]: 0 | Activity [6]: 0

KKWGWLAWVDPAYEFIKGFGKGAIKEGNKDKWKNI [2JPK NMR - A 1-35]
Activity [12]: 0 | Activity [7]: 0

QPWSQCSATCGDGVRERRR [satpdb12468]
Activity [1]: 1 | Activity [2]: 1 | Activity [3]: 1 | Activity [4]: 1

MKNAKQEHFELDQEWVELMVEAKEANISPEEIRKYLLLNKKSAHPGPAARSHTVNPF [1B0N X-ray 1.90,B,1-57]
Activity [12]: 0 | Activity [11]: 0

WYVKKCLNDVGICKKKCKPEEMHVKNGWAMCGKGRDCCVPAD [satpdb13381]
Activity [5]: 0 | Activity [9]: 0

RGGRLCYARRRFAVCVGR [satpdb14374]
Activity [10]: 0 | Activity [9]: 0 | Activity [11]: 0

KWKSFLKTFKSlKKTVLHTLLKAISS [compound 3769]
Activity [8]: 1 | Activity [6]: 1 | Activity [7]: 1

FLPMLAGLAASMVPKLVCLITKKC [satpdb11064]
Activity [1]: 0 | Activity [6]: 0

LRVRLASHLRKLRKRLLRDADDLQKRLAVY [compound 1665]
Activity [1]: 1 | Activity [2]: 1 | Activity [3]: 1 | Activity [4]: 1

MKVRSSVKKMCDNCKVVRRHGRVLVICSNVKHKQRQG [2ZJR X-ray 2.91,4,1-37]
Activity [12]: 0 | Activity [7]: 0

PIDERLRTCERLSYP [satpdb14897]
Activity [1]: 1 | Activity [2]: 1 | Activity [3]: 1 | Activity [4]: 1

FFPIVGKLLFGLL [satpdb13027]
Activity [10]: 0 | Activity [9]: 0 | Activity [11]: 0

FAKLA [compound 1859]
Activity [8]: 1 | Activity [2]: 1 | Activity [3]: 1

GLFTLIKGAAKLIGKTVPKKQARLGMNLWLVKLPTNVKT [satpdb12795]
Activity [5]: 0 | Activity [9]: 0
